# Results from ChEMBL document CHEMBL1201862, “PubChem BioAssay data set” (2004).
# Active and inactive are the calls of the source.
# Experiments:
# [1] = biological target: T1, Trace amine-associated receptor 1 (Homo sapiens, UniProt Q96RJ0); experiment: Counterscreen for agonists of the human trace amine associated receptor 1 (hTAAR1): Fluorescence-based cell-based high throughput dose response assay to identify hTAAR1 agonist that also desensitize TAAR1 receptor response.; assay type: functional
# T1 sequence (Q96RJ0 whole entry): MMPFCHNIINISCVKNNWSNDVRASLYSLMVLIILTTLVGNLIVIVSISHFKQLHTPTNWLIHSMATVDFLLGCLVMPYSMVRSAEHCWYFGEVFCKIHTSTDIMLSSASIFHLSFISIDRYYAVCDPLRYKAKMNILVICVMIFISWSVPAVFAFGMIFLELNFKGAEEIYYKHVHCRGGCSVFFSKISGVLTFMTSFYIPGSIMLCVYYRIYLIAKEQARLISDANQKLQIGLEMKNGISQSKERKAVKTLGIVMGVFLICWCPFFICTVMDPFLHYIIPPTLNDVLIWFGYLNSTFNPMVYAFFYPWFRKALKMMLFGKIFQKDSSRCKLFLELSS
# [2] = biological target: T1, Trace amine-associated receptor 1; experiment: Fluorescence-based cell-based high throughput dose response assay to identify agonists of the human trace amine associated receptor 1 (TAAR1).; assay type: functional
# cells [3] = assay type: functional, cell-based
# cells [4] = assay type: functional, cell-based; remark: listed apart in the source
# cells [5] = experiment: cells
# Major prion protein = Major prion protein (Homo sapiens, UniProt P04156); assay type: functional, cell-based
# [6] = biological target: T2, Corticotropin-releasing factor receptor 2/Corticotropin-releasing factor-binding protein (Homo sapiens, UniProt P24387+Q13324); experiment: activators of CRF receptor 2 with binding protein – uHTS hits, confirmation (AID 602473); assay type: functional; conditions: read-out: EC50_Mean
# T2 sequence (Q13324 whole entry): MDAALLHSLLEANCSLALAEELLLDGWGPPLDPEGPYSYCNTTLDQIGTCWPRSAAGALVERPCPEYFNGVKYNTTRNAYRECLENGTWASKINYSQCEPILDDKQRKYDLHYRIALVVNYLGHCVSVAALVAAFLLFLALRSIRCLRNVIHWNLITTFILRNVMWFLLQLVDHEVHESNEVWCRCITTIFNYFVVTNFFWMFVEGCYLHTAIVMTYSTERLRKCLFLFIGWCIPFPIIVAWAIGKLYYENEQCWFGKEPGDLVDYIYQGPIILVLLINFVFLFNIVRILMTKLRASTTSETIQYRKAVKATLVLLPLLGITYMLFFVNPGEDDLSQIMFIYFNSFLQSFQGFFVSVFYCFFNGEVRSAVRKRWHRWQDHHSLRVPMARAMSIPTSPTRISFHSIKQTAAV
# T2 sequence (P24387 whole entry): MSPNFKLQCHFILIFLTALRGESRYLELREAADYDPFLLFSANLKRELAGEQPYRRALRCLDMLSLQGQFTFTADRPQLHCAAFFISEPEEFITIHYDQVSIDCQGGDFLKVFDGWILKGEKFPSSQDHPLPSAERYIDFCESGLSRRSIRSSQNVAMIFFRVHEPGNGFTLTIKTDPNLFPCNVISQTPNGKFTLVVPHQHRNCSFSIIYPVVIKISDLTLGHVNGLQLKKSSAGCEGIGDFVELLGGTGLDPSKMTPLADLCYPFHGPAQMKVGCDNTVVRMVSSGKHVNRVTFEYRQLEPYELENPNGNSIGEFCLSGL
# [7] = biological target: T2, Corticotropin-releasing factor receptor 2/Corticotropin-releasing factor-binding protein; experiment: Dose Response confirmation of uHTS hits for small molecule antagonists of the CRF-binding protein and CRF-R2 receptor complex.; assay type: functional; conditions: read-out: IC50_Mean
# [8] = HEK293 cell cytotoxicity, dose response, cytotoxicity control, cherry-picks, set 5 (AID 1053117); assay type: functional, cell-based
# [9] = biological target: Arf-GAP with SH3 domain, ANK repeat and PH domain-containing protein 1 (Homo sapiens, UniProt Q9ULH1); assay type: functional;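 note: biochemical fluorescence polarization dose–response screen measuring inhibition of ASAP1; ASAP1 GAP domain stimulating GTP hydrolysis by truncated human ARF1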
# [10] = LMP1-driven NF-kB reporter inhibition, dose response, cell-based, luciferase reporter, luminescence, dry powder, set 2 (AID 624376); assay type: functional
# [11] = MITF: Counter assay: A375 proliferation Measured in Cell-Based System Using Plate Reader - 2084-03_Inhibitor_Dose_DryPowder_Activity_Set8.; assay type: functional; conditions: A-375
# [12] = MITF Orthogonal Assay: SK-MEL-5 CTG Assay Measured in Cell-Based System Using Plate Reader - 2084-02_Inhibitor_Dose_DryPowder_Activity_Set7.; assay type: functional
# [13] = TRPM1 promoter luciferase reporter signal decrease, dose response, MITF inhibitor project, cell-based, SK-MEL-5, dry powder, set 8 (AID 624430); assay type: functional
# [14] = Counterscreen for inhibitors of Trypanosoma brucei methionyl tRNA synthetase (MetRS): Luminescence-based cell-based high throughput dose response assay to identify compounds that are cytotoxic to Jurkat human T lymphocyte cells.; assay type: functional
# [15] = biological target: T3, Methionyl-tRNA synthetase, putative (Trypanosoma brucei brucei, UniProt Q38C91); assay type: functional, Trypanosoma brucei brucei strain 927/4 GUTat10.1
# T3 sequence (Q38C91 whole entry): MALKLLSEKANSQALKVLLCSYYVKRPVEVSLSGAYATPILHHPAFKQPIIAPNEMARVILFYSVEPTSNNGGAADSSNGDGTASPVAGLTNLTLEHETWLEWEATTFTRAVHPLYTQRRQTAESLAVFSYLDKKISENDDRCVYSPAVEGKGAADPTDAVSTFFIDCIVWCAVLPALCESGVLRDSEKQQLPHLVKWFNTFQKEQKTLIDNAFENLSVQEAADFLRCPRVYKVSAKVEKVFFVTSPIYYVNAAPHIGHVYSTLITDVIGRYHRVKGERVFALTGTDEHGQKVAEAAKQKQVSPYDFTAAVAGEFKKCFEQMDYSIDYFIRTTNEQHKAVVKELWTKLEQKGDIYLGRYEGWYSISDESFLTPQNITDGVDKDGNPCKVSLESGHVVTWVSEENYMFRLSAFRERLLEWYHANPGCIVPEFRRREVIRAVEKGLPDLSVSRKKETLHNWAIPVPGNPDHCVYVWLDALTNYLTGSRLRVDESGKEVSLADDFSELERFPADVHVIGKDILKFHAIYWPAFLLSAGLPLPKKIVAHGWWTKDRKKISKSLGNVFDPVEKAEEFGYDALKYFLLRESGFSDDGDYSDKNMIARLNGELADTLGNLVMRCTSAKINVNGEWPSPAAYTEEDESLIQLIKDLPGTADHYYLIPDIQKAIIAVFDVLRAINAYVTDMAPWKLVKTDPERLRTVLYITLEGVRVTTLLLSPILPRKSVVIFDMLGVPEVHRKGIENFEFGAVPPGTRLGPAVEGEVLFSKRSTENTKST
# [16] = biological target: T3, Methionyl-tRNA synthetase, putative; assay type: functional, Trypanosoma brucei brucei strain 927/4 GUTat10.1; remark: listed apart in the source
# [17] = A2780 ovarian cancer cell cytotoxicity, dose response, cytotoxicity control, plate reader, dry powder samples (AID 743046); assay type: functional, cell-based
# Paired box protein Pax-8 = Paired box protein Pax-8 (Homo sapiens, UniProt Q06710); experiment: inhibitors of PAX8-driven TPO luciferase reporter, dose response, RMG-I cells, cherry-pick (AID 687027); assay type: functional, cell-based;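 note: luciferase reporter driven by Pax8 target thyroperoxidase promoter measured by SteadyGlo luminescence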
# [18] = biological target: T4, Oxysterols receptor LXR-beta (Homo sapiens, UniProt P55055); assay type: functional, cell-based
# T4 sequence (P55055 whole entry): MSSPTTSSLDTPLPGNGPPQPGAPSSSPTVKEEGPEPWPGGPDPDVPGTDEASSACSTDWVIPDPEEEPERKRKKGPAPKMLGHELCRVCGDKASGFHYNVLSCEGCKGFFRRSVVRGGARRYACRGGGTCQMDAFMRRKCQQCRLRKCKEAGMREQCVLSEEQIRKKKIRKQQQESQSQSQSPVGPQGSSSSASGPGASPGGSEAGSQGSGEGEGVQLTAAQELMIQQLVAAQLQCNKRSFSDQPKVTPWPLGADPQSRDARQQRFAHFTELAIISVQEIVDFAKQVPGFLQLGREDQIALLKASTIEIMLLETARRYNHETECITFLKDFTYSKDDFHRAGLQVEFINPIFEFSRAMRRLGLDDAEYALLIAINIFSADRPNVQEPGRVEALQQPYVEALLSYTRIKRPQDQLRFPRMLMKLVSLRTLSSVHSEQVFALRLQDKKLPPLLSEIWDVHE
# cells [19] = assay type: functional, cell-based; remark: listed apart in the source
# cells [20] = assay type: functional, cell-based; remark: listed apart in the source
# [21] = Luminescence Cell-Based Dose Response HTS to Identify Activators of Luciferase Translation or Activity in H4 […] Cells. [Related pubchem assays: 1829 (Project Summary), 1814 (Primary HTS)]; assay type: functional
# H4 = experiment: Luminescence Cell-Based Dose Response HTS to Identify Activators of 5'UTR Stem-Loop Driven Prion Protein mRNA Translation in H4 Neuroglioblastoma Cells. [Related pubchem assays: 1829 (Project Summary), 1814 (Primary HTS)]; assay type: functional; conditions: Homo sapiens
# Beta-lactamase [22] = biological target: T5, Beta-lactamase (Pseudomonas aeruginosa, UniProt Q79MP6); experiment: […] counterscreen for selective VIM-2 inhibitors: dose response biochemical high throughput screening assay to identify inhibitors of IMP-1 metallo-beta-lactamase.
# Beta-lactamase [23] = biological target: Beta-lactamase (Salmonella choleraesuis (strain SC-B67), UniProt Q5J463); experiment: Epi-absorbance-based counterscreen for selective VIM-2 inhibitors: dose response biochemical high throughput screening assay to identify inhibitors of TEM-1 serine-beta-lactamase.
# Beta-lactamase [24] = biological target: T5, Beta-lactamase; experiment: IMP-1 metallo-beta-lactamase inhibitors, dose response, selectivity assay for VIM-2 inhibitor project, biochemical, epi-absorbance (AID 1920)
# HEK293 = experiment: HEK293T cell cytotoxicity, dose response, cytotoxicity control, ATP luminescence, cherry-pick samples (AID 687005); assay type: functional, cell-based; conditions: Homo sapiens;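 note: cells exposed to compound for 48 hours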
# [25] = HEK293 Cytotoxicity Assay Measured in Cell-Based System Using Plate Reader - 7071-01_Inhibitor_Dose_CherryPick_Activity_Set2.; assay type: functional
# HeLa = experiment: HeLa cell cytotoxicity, dose response, cytotoxicity control, ATP luminescence, cherry-pick samples (AID 687004); assay type: functional, cell-based; conditions: Homo sapiens
# [26] = biological target: T4, Oxysterols receptor LXR-beta; assay type: functional, cell-based; remark: listed apart in the source
# [27] = A Cell Based Secondary Assay To Explore Cytotoxicity of Compounds that Sensitize Mycobacterium Tuberculosis to Beta-Lactam Antibiotics.; assay type: functional
# cells [28] = experiment: cells; remark: listed apart in the source
smiles,measurement,setting,value
O=C(N[C@@H](Cc1cccnc1)C(=O)N1CCC[C@H]1C(=O)NCCc1ccccc1Cl)c1ccccc1,IC50,[1],5.16 µM (active)
same,EC50,[2],4.3 µM (active)
same,EC50,cells [3],> 29.9 µM (inactive)
same,IC50,cells [4],> 29.9 µM (inactive)
COc1ccc2c(C)cc(SCc3c(C)noc3C)nc2c1,IC50,cells [5],> 138 µM (inactive)
same,IC50,Major prion protein,4.31 µM (active)
same,EC50,[6],> 53 µM (inactive)
same,IC50,[7],> 47.1 µM (inactive)
C[C@H]1CN([C@@H](C)CO)C(=O)c2cc(-c3ccccc3)cnc2O[C@H]1CN(C)C(=O)c1cccc(F)c1,AC50,[8],> 52 µM (inactive)
Cc1ccc(/C=N/NC(=O)CCCOc2ccc(Cl)cc2Cl)cc1[N+](=O)[O-],IC50,[9],26.1 µM (inactive)
Cc1noc(C)c1S(=O)(=O)Nc1ccc2c(c1)C(=O)N([C@@H](C)CO)C[C@@H](C)[C@H](CN(C)Cc1ccc(C(F)(F)F)cc1)OCCCC[C@@H](C)O2,AbsAC35,[10],151.1 µM
O=C1C(Nc2ccc(I)cc2)=C(N2CCCCC2)C(=O)c2ccccc21,AC50,[11],> 70 µM (inactive)
same,AC50,[12],15.9 µM (active)
same,AC50,[13],9.62 µM (active)
Cc1ccc(NC(=O)C(C)c2cccc(C(=O)c3ccccc3)c2)cc1 (stereo not drawn),IC50,[14],83.3 µM (inactive)
same,IC50,[15],3.15 µM (active)
same,IC50,[16],7.61 µM (active)
COc1ccc(/C=C2\C(=O)NC(=O)c3ccccc32)cc1OC,IC50,[9],165 µM (inactive)
Cc1noc(C)c1S(=O)(=O)N(C)C[C@H]1OCCCC[C@@H](C)Oc2ccc(NS(=O)(=O)c3ccc(Cl)cc3)cc2C(=O)N([C@@H](C)CO)C[C@H]1C,AC50,[17],< 0.26 µM (active)
same,AC50,Paired box protein Pax-8,10.9 µM (active)
O=C(NCCCn1ccnc1)c1cc(-c2ccccc2)on1,EC50,[18],> 67.5 µM (inactive)
same,EC50,cells [19],8.67 µM (active)
same,EC50,cells [20],> 350 µM (not active)
C[C@H]1CN([C@@H](C)CO)C(=O)c2c(c3ccccc3n2C)-c2ccccc2CO[C@@H]1CN(C)C(=O)Nc1ccc(F)cc1,AbsAC35,[10],78.41 µM
Cc1cc(O)ccc1Nc1cc(-c2cccc(N(C)C)c2)ncn1,EC50,[18],> 67.5 µM (inactive)
O=C1C=C(Nc2cc(Cl)cc(Cl)c2)C(=O)c2ccccc21,AC50,[11],24 µM (active)
same,AC50,[12],1.12 µM (active)
same,AC50,[13],23.9 µM (active)
CC1CCCN(C(=O)CSc2cnc3ccccc3n2)C1 (stereo not drawn),EC50,[21],5.25 µM (active)
same,IC50,cells [5],> 138 µM (inactive)
same,IC50,Major prion protein,5.87 µM (active)
same,EC50,H4,11 µM (active)
O=C(CSc1nnc(NC(=O)c2c(F)cccc2F)s1)NCc1ccccc1,IC50,Beta-lactamase [22],> 59.6 µM (inactive)
same,IC50,Beta-lactamase [23],> 59.6 µM (inactive)
same,IC50,Beta-lactamase [24],> 59.6 µM (inactive)
C[C@@H]1CN([C@@H](C)CO)C(=O)c2cc(NS(=O)(=O)c3ccc(F)cc3)ccc2O[C@@H](C)CCCCO[C@H]1CN(C)S(=O)(=O)c1ccc(F)cc1,AC50,HEK293,22.5 µM (active)
same,AC50,[25],22.5 µM (active)
same,AC50,HeLa,> 52 µM (inactive)
O=C(O)C1C2C=CC(C2)C1C(=O)NCCc1ccccc1 (stereo not drawn),IC50,[1],5.26 µM (active)
same,EC50,[2],0.14 µM (active)
same,EC50,cells [3],> 29.9 µM (inactive)
same,IC50,cells [4],> 29.9 µM (inactive)
OC(c1cc(F)cc(Cl)c1)c1nc(-c2cccc(C(F)(F)F)c2)c[nH]1 (stereo not drawn),IC50,[14],42.2 µM (inactive)
same,IC50,[15],17.5 µM (inactive)
same,IC50,[16],27.7 µM (inactive)
Nc1c2c(nc3sc4c(c13)CCCC4)-c1ccccc1CC2,EC50,[26],> 67.5 µM (inactive)
same,CC50,[27],> 40 µM (active)
same,EC50,cells [28],> 67.5 µM (inactive)
